Assay: Solubility in Disintegration Test 2nd fluid (Test Example 1)
Settings: approx. 50 mg in 500 mL Disintegration Test 2nd fluid (Japanese pharmacopoeia, 14th Edition), paddles 50 rpm, concentration by HPLC over time (FIG. 17); compared with crystal form B
Procedure: First, 500 mL of the 2nd fluid was stirred at 50 rpm with paddles (Toyama Co., Ltd.; DISSOLUTION TESTER), then after the crystals and amorphous compound were added, the solution was sampled at each time period. The sampled solutions were filtered through a filter (0.2 μm), and the concentration of 5-[2-amino-4-(2-furyl)pyrimidin-5-yl]-1-methylpyridin-2(1H)-one in the solution was measured by HPLC method. The conditions for HPLC method are shown below.
Column: CAPCELL PAK C18 AQ, S-5 μm, 4.6 mm ID×250 mm length (Shiseido, Japan)
Column temperature: a constant temperature around 30° C.
Detection wavelength: 262 nm
Solution A: acetonitrile/water/1M ammonium acetate (10:1000:1, v/v/v)
Solution B: acetonitrile/water/1M ammonium acetate (900:100:1, v/v/v)

| SMILES | solubility |
| --- | --- |
| Cn1cc(-c2cnc(N)nc2-c2ccco2)ccc1=O.O [hydrate crystals, 5-[2-amino-4-(2-furyl)pyrimidin-5-yl]-1-methylpyridin-2(1H)-one hydrate] | superior in solubility than the crystal form B |
| Cn1cc(-c2cnc(N)nc2-c2ccco2)ccc1=O [crystal form C, 5-[2-amino-4-(2-furyl)pyrimidin-5-yl]-1-methylpyridin-2(1H)-one] | superior in solubility than the crystal form B |
